From ChEMBL document CHEMBL1201862, “PubChem BioAssay data set” (2004)
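In this assay, cells in 96-well plates receive the compound at five concentrations for 48 hours. Endpoints are linearly interpolated between the surrounding concentrations. GI50: concentration for 50% inhibition of growth.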 Activity calls are given as the source filed them. Rule as the data show it: active = GI50 up to about 1.1 µM and inactive = higher.

What was measured:
Experiment in all cases: NCI-60 cell line screen, 48 h
786-0 = test system: 786-0
SF-539 = test system: SF-539
RXF 393 = test system: RXF 393
SF-268 = test system: SF-268
NCI-H226 = test system: NCI-H226
UO-31 = test system: UO-31
MOLT-4 = test system: MOLT-4
OVCAR-8 = test system: OVCAR-8
COLO 205 = test system: COLO 205
SF-295 = test system: SF-295
MDA-MB-435 = test system: MDA-MB-435
HOP-92 = test system: HOP-92
MCF7 = test system: MCF7
Malme-3M = test system: Malme-3M
SN12C = test system: SN12C
UACC-257 = test system: UACC-257
MDA-MB-231 = test system: MDA-MB-231
CCRF-CEM = test system: CCRF-CEM
OVCAR-3 = test system: OVCAR-3
SR = test system: SR
HOP-62 = test system: HOP-62
SK-MEL-28 = test system: SK-MEL-28
A549 = test system: A549
RPMI-8226 = test system: RPMI-8226
KM12 = test system: KM12
NCI-H23 = test system: NCI-H23
SNB-19 = test system: SNB-19
OVCAR-4 = test system: OVCAR-4
U-251 = test system: U-251
NCI-H460 = test system: NCI-H460
SNB-75 = test system: SNB-75
MDA-N = test system: MDA-N
DU-145 = test system: DU-145
HCC 2998 = test system: HCC 2998
ACHN = test system: ACHN
T47D = test system: T47D
SK-OV-3 = test system: SK-OV-3
NCI-H522 = test system: NCI-H522
HCT-116 = test system: HCT-116
HCT-15 = test system: HCT-15
BT-549 = test system: BT-549
A498 = test system: A498
K562 = test system: K562
NCI/ADR-RES = test system: NCI/ADR-RES
EKVX = test system: EKVX
OVCAR-5 = test system: OVCAR-5
PC-3 = test system: PC-3
UACC-62 = test system: UACC-62
M14 = test system: M14
CAKI-1 = test system: CAKI-1
SW-620 = test system: SW-620
TK-10 = test system: TK-10
LOX IMVI = test system: LOX IMVI
HT-29 = test system: HT-29
Hs-578T = test system: Hs-578T
SK-MEL-5 = test system: SK-MEL-5
IGROV-1 = test system: IGROV-1

Cc1ccc(Nc2sc(C)cc2C#N)c([N+](=O)[O-])c1
GI50 (786-0): > 100 µM (inactive) | GI50 (SF-539): > 100 µM (inactive) | GI50 (RXF 393): 53.3 µM (inactive) | GI50 (SF-268): > 100 µM (inactive) | GI50 (NCI-H226): > 100 µM (inactive) | GI50 (UO-31): > 100 µM (inactive) | GI50 (MOLT-4): > 100 µM (inactive) | GI50 (OVCAR-8): > 100 µM (inactive) | GI50 (COLO 205): > 100 µM (inactive) | GI50 (SF-295): > 100 µM (inactive) | GI50 (MDA-MB-435): > 100 µM (inactive) | GI50 (HOP-92): 88.9 µM (inactive) | GI50 (MCF7): > 100 µM (inactive) | GI50 (Malme-3M): > 100 µM (inactive) | GI50 (SN12C): > 100 µM (inactive) | GI50 (UACC-257): > 100 µM (inactive) | GI50 (MDA-MB-231): > 100 µM (inactive) | GI50 (CCRF-CEM): 99.8 µM (inactive) | GI50 (OVCAR-3): > 100 µM (inactive) | GI50 (SR): > 100 µM (inactive) | GI50 (HOP-62): > 100 µM (inactive) | GI50 (SK-MEL-28): > 100 µM (inactive) | GI50 (A549): > 100 µM (inactive) | GI50 (RPMI-8226): > 100 µM (inactive) | GI50 (KM12): 93.5 µM (inactive) | GI50 (NCI-H23): > 100 µM (inactive) | GI50 (SNB-19): > 100 µM (inactive) | GI50 (OVCAR-4): > 100 µM (inactive) | GI50 (U-251): > 100 µM (inactive) | GI50 (NCI-H460): > 100 µM (inactive) | GI50 (SNB-75): > 100 µM (inactive) | GI50 (MDA-N): > 100 µM (inactive) | GI50 (DU-145): > 100 µM (inactive) | GI50 (HCC 2998): > 100 µM (inactive) | GI50 (ACHN): > 100 µM (inactive) | GI50 (T47D): > 100 µM (inactive) | GI50 (SK-OV-3): > 100 µM (inactive) | GI50 (NCI-H522): > 100 µM (inactive) | GI50 (HCT-116): > 100 µM (inactive) | GI50 (HCT-15): 67.3 µM | GI50 (BT-549): > 100 µM (inactive) | GI50 (A498): > 100 µM (inactive) | GI50 (K562): > 100 µM (inactive) | GI50 (NCI/ADR-RES): 98.9 µM (inactive) | GI50 (EKVX): > 100 µM (inactive) | GI50 (OVCAR-5): > 100 µM (inactive) | GI50 (PC-3): > 100 µM (inactive) | GI50 (UACC-62): > 100 µM (inactive) | GI50 (M14): > 100 µM (inactive) | GI50 (CAKI-1): > 100 µM (inactive) | GI50 (SW-620): > 100 µM (inactive)

O=[N+]([O-])c1ccc(O)c(/C=N/CC2CCCN3CCCCC23)c1 (centres undefined)
GI50 (786-0): 38.8 µM (inactive) | GI50 (SF-539): 25.6 µM (inactive) | GI50 (RXF 393): 23 µM (inactive) | GI50 (SF-268): 21.3 µM (inactive) | GI50 (NCI-H226): 26.5 µM (inactive) | GI50 (TK-10): > 100 µM (inactive) | GI50 (UO-31): 34.8 µM (inactive) | GI50 (OVCAR-8): 30.8 µM (inactive) | GI50 (COLO 205): 24.2 µM (inactive) | GI50 (SF-295): 31.2 µM (inactive) | GI50 (MCF7): 46.8 µM (inactive) | GI50 (Malme-3M): 31 µM (inactive) | GI50 (UACC-257): 32.5 µM (inactive) | GI50 (MDA-MB-231): 88.1 µM (inactive) | GI50 (LOX IMVI): 38.8 µM (inactive) | GI50 (OVCAR-3): 31 µM (inactive) | GI50 (HOP-62): 83.4 µM (inactive) | GI50 (A549): 91.4 µM (inactive) | GI50 (HT-29): 35.6 µM (inactive) | GI50 (KM12): 37.7 µM (inactive) | GI50 (NCI-H23): 46.7 µM (inactive) | GI50 (SNB-19): 25.1 µM (inactive) | GI50 (Hs-578T): 16.9 µM (inactive) | GI50 (SK-MEL-5): 19.3 µM (inactive) | GI50 (NCI-H460): 45.8 µM (inactive) | GI50 (SNB-75): 23.7 µM (inactive) | GI50 (MDA-N): 44.8 µM (inactive) | GI50 (DU-145): 42.2 µM (inactive) | GI50 (HCC 2998): 22.5 µM (inactive) | GI50 (ACHN): 26.9 µM (inactive) | GI50 (SK-OV-3): 29.6 µM (inactive) | GI50 (NCI-H522): 26 µM (inactive) | GI50 (IGROV-1): 43.9 µM (inactive) | GI50 (HCT-116): 44.2 µM (inactive) | GI50 (HCT-15): 41.1 µM | GI50 (BT-549): 38.6 µM (inactive) | GI50 (NCI/ADR-RES): 20.7 µM (inactive) | GI50 (EKVX): 31.4 µM (inactive) | GI50 (OVCAR-5): 31.7 µM (inactive) | GI50 (PC-3): 57.1 µM (inactive) | GI50 (UACC-62): 27.9 µM (inactive) | GI50 (M14): 19.6 µM (inactive) | GI50 (CAKI-1): 57.7 µM (inactive)
